Measured values reported in patent publication US9353062B2, “Substituted quinolines as bruton's tyrosine kinases inhibitors” (HangzhouDeRenYuCheng Biotechnology Ltd, priority 2012, dated 2016).

Legend:
Btk [1] = molecular target: T1, Btk (Homo sapiens (Human), UniProt Q06187); test: Btk kinase assay, method B (Kinase-Glo Plus luminescence); format: biochemical; conditions: 10 μM ATP
Experimental: (§1) An in vitro assay which determines the ability of a test compound to inhibit Btk.
b) Method B conducts the kinase assay with the following condition and procedure: The assay was performed using Kinase-Glo Plus luminescence kinase assay kit (Promega). It measures kinase activity by quantitating the amount of ATP remaining in solution following a kinase reaction. The luminescent signal from the assay is correlated with the amount of ATP present and is inversely correlated with the amount of kinase activity.
The compounds were diluted in 10% DMSO and 5 μl of the dilution was added to a 50 μl reaction so that the final concentration of DMSO is 1% in all of reactions. All of the enzymatic reactions were conducted at 30° C. for 40 minutes. […] After the enzymatic reaction, 50 μl of Kinase-Glo Plus Luminescence kinase assay solution (Promega) was added to each reaction and incubate the plate for 5 minutes at room temperature. Luminescence signal was measured using a BioTek Synergy 2 microplate reader. […] The luminescence data were analyzed using the computer software, Graphpad Prism. The difference between luminescence intensities in the absence of Btk (Lut) and in the presence of Btk (Luc) was defined as 100% activity (Lut−Luc). […] The IC50 value was determined by the concentration causing a half-maximal percent activity. […]

[2] = test system: BTK signaling in Ramos cells; test: Btk Ramos Cellular Assay (phosphorylation of BTK substrate PLCγ2); format: cell-based; conditions: 1 hour compound incubation, anti-human IgM stimulation, PLCγ2 phosphorylation blot, read-out: inhibition of BTK signaling in Ramos cells, IC50
Experimental: Ramos cells were grown in suspension in T225 flasks, spun down, resuspended in 50 mL serum-free media and incubated for 1 hour. Compound was added to Ramos cells in serum free media to a final concentration of 1, 0.1, 0.01, or 0.001 μM. Ramos cells were incubated with compound for 1 hour, washed again and resuspended in 100 μL serum-free media. Cells were then stimulated with 1 μg of goat F(ab′)2 Anti-Human IgM and incubated on ice for 10 minutes to activate B cell receptor signaling pathways. After 10 minutes, the cells were washed once with PBS and then lysed on ice with Invitrogen Cell Extraction buffer. Sixteen μg total protein from lysates was loaded on gels and blots were probed for phosphorylation of the BTK substrate PLCγ2.

Btk [3] = molecular target: T1, Btk; test: Btk kinase assay, method A (33P-ATP radiometric); format: biochemical; conditions: 10 μM ATP
Experimental: as §1
a) Method A conducts the kinase assay with the following condition and procedure: Reagent: Base Reaction Buffer; 20 mM Hepes (pH 7.5), 10 mM MgCl2, 1 mM EGTA, 0.02% Brij35, 0.02 mg/ml BSA, 0.1 mM Na3VO4, 2 mM DTT, 1% DMSO.
1. Prepare indicated substrate in freshly prepared Base Reaction Buffer.
2. Deliver any required cofactors to the substrate solution obtained in step 1.
3. Deliver indicated kinase into the substrate solution prepared in step 2 and gently mix.
4. Deliver compounds in DMSO into the kinase reaction mixture prepared in step 3.
5. Deliver ^33P-ATP (specific activity 0.01 μCi/μl final) into the reaction mixture prepared in step 4 to initiate the reaction.
6. Incubate kinase reaction for 120 min. at room temperature.
7. Reactions are spotted onto P81 ion exchange paper (Whatman #3698-915).
8. Washing filters extensively in 0.75% Phosphoric acid.
Compounds were tested in 10-dose IC50 mode with 3-fold serial dilution starting at 10 μM; Reactions were carried out at 10 μM ATP.

T1 sequence (Q06187 whole entry, species assumed): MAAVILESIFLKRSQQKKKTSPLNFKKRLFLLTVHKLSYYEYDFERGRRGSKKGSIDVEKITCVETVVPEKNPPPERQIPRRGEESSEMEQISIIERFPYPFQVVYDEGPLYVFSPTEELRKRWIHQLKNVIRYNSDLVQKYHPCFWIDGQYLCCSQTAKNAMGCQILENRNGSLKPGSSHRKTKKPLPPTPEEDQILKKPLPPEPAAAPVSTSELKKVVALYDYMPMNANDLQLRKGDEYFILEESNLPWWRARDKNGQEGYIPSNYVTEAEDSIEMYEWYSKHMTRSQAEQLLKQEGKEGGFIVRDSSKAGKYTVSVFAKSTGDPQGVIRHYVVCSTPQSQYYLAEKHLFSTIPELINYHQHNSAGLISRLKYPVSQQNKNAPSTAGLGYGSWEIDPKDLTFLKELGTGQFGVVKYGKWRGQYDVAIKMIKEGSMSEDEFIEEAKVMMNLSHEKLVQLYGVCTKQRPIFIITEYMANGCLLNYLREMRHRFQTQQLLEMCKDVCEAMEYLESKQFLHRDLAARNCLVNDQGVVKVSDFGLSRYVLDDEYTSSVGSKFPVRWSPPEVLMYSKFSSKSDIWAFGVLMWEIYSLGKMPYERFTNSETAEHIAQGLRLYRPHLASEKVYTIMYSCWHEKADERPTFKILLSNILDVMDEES

IC50 (Btk [1]) | IC50 [2] | IC50 (Btk [3]) | SMILES
< 0.1 µM | < 0.1 µM | 0.00064 µM | CCOc1cc2ncc(C#N)c(Nc3ccc(Oc4ccccc4)cc3)c2cc1NC(=O)/C=C/CN(C)C [Example 1, (E)-N-(3-cyano-7-ethoxy-4-((4-phenoxyphenyl)amino)quinolin-6-yl)-4-(dimethylamino)but-2-enamide]
< 0.1 µM | – | – | CN(C)C/C=C/C(=O)Nc1ccc2ncc(C#N)c(Nc3ccc(Oc4ccccc4)cc3)c2c1 [Example 2, (E)-N-(3-cyano-4-((4-phenoxyphenyl)amino)quinolin-6-yl)-4-(dimethylamino)but-2-enamide]
